Measured values from patent US20050158709A1, “Methods for determinging the influence of protein binding on antiretroviral activity” (priority 2002, published 2005).
Where two headings read alike, the source gives them in different places.

How the values were obtained:
wild type HIV-1 (LAI) = test: Cell-based antiviral assay (MT4 cells, MTT method) in the presence of human plasma or serum proteins, wild type HIV-1; details: for ratio between EC50 in presence of indicated protein and EC50 in presence of 10% FCS: HS 50% / ratio between EC50 in presence of indicated protein and EC50 in presence of 10% FCS: AAG 1 mg/mL / ratio between EC50 in presence of indicated protein and EC50 in presence of 10% FCS: FCS (10%) / ratio between EC50 in presence of indicated protein and EC50 in presence of 10% FCS: HSA 45 mg/mL: wild type HIV-1 (LAI), median of at least two determinations; for ratio between EC50 in presence of indicated protein and EC50 in presence of 10% FCS: HS 50%: 50% human serum; for ratio between EC50 in presence of indicated protein and EC50 in presence of 10% FCS: AAG 1 mg/mL: AAG 1 mg/mL and 10% FCS; for ratio between EC50 in presence of indicated protein and EC50 in presence of 10% FCS: FCS (10%): FCS 10% (reference); for ratio between EC50 in presence of indicated protein and EC50 in presence of 10% FCS: HSA 45 mg/mL: HSA 45 mg/mL and 10% FCS
Description: (§1) The influence of AAG, Human Serum Albumin (HSA) or Human Serum (HS) on the activity of antiretrovirals was measured in a cell-based antiviral assay. A phenotypic assay was performed to measure the ability of resistant virus strains to grow in the presence of each drug of interest, and in the presence of various combinations of plasma or serum proteins at different concentrations: • 50% heat-inactivated human serum (HS) with or without 10% fetal calf serum (FCS) • 1 mg/mL AAG and 10% FCS • 45 mg/mL human serum albumin (HSA) and 10% FCS
(§2) Anti-HIV activity was determined in HIV-or mock-infected MT4 cells by the MTT method as described by Pauwels et al (1988), J.Virol.Meth.20:[…], and Hertogs et al (1998), Antimicrob.Ag.Chemother.42:269-27. Briefly, recombinant or non-recombinant virus, with a specific resistance profile, were grown in cell culture to obtain viral stocks of known concentration. Susceptibility testing of the viral stocks in the presence of various antiviral agents and in the presence of plasma or serum proteins, and a detection system based on MTT determined to which extent agents inhibited replication of the virus strains.
(§3) Virus strains used for these studies had different origins: • HIV strains obtained by in vitro selection in the presence of various antivirals • Recombinant clinical isolates constructed according to the Antivirogram™ method as described by Hertogs et al (1998).

LAI = test: EC50 against viral strain LAI; assay type: cell-based, HIV; details: Human immunodeficiency virus 1
Description: (§4) As an example, protease inhibitors have clinically relevant concentrations in a range of around 500 nM and more, sub-therapeutic concentrations in the range of around 50 nM to around 500 nM, and in vitro testing concentrations in the range of less than around or 50 nM.

[1] = system: various HIV-1 strains (resistant strains); assay type: cell-based; details: for EC50 ratio (human plasma or serum protein vs 10% FCS), concentration range 50 nM-5 nM: EC50 50 nM-5 nM (in vitro testing concentrations, wild type HIV); for EC50 ratio (human plasma or serum protein vs 10% FCS), concentration range 500 nM-50 nM: strains with EC50 500 nM-50 nM (sub-therapeutic concentrations)
Description: as §1, §2, §3
Virus strains with various levels of resistance against each of the PIs were used in similar experiments with AAG.

R13273 = test: EC50 against viral strain R13273; assay type: cell-based, HIV; details: Human immunodeficiency virus 1
Description: as §4

R13485 = test: EC50 against viral strain R13485; assay type: cell-based, HIV; details: Human immunodeficiency virus 1
Description: as §4

R13028 = test: EC50 against viral strain R13028; assay type: cell-based, HIV; details: Human immunodeficiency virus 1
Description: as §4

R13025 = test: EC50 against viral strain R13025; assay type: cell-based, HIV; details: Human immunodeficiency virus 1
Description: as §4

R13036 = test: EC50 against viral strain R13036; assay type: cell-based, HIV; details: Human immunodeficiency virus 1
Description: as §4

R13127 = test: EC50 against viral strain R13127; assay type: cell-based, HIV; details: Human immunodeficiency virus 1
Description: as §4

HIV [2] = details: cited from earlier work
HIV [3] = details: extensive protein binding prevented intracellular diffusion; cited from earlier work
HIV [4] = details: in vitro; increasing AAG; cited from earlier work
R13031 = test: EC50 against viral strain R13031; assay type: cell-based, HIV; details: Human immunodeficiency virus 1
Description: as §4

R13020 = test: EC50 against viral strain R13020; assay type: cell-based, HIV; details: Human immunodeficiency virus 1
Description: as §4

T13127 = test: EC50 against viral strain T13127; assay type: cell-based, HIV; details: Human immunodeficiency virus 1
Description: as §4

T13025 = test: EC50 against viral strain T13025; assay type: cell-based, HIV; details: Human immunodeficiency virus 1
Description: as §4

[5] = protein not given, AAG, median of at least two determinations
[6] = strains with EC50 5 μM-500 nM (clinically relevant concentrations), protein not given, AAG, median of at least two determinations

Row | SMILES | ratio between EC50 in presence of indicated protein and EC50 in presence of 10% FCS: HS 50% (wild type HIV-1 (LAI)) | ratio between EC50 in presence of indicated protein and EC50 in presence of 10% FCS: AAG 1 mg/mL (wild type HIV-1 (LAI)) | ratio between EC50 in presence of indicated protein and EC50 in presence of 10% FCS: FCS (10%) (wild type HIV-1 (LAI)) | ratio between EC50 in presence of indicated protein and EC50 in presence of 10% FCS: HSA 45 mg/mL (wild type HIV-1 (LAI)) | EC50 (LAI) | EC50 ratio (human plasma or serum protein vs 10% FCS), concentration range 5 μM-500 nM [1] | EC50 ratio (human plasma or serum protein vs 10% FCS), concentration range 50 nM-5 nM [1, 5] | EC50 ratio (human plasma or serum protein vs 10% FCS), concentration range 500 nM-50 nM [1, 5] | EC50 (R13025) | also measured
1 | Cc1cccc(C)c1OCC(=O)N[C@@H](Cc1ccccc1)[C@@H](O)C[C@H](Cc1ccccc1)NC(=O)[C@H](C(C)C)N1CCCNC1=O [Lopinavir, lopinavir] | 5 | 26 | 1 | 5 | ~9 nM | 4 | 64 | 20 |  | EC50 (R13273): ~2000 nM; EC50 (R13485): ~367 nM
2 | CC(C)CN(C[C@@H](O)[C@H](Cc1ccccc1)NC(=O)OC1CO[C@H]2OCC[C@@H]12)S(=O)(=O)c1ccc(N)cc1 (some centres unmarked) [compound 1] |  |  |  |  |  | 7 | 24 | 12 |  | EC50 ratio (human plasma or serum protein vs 10% FCS), concentration range <5 nM [1]: 85; EC50 ratio (human plasma or serum protein vs 10% FCS), concentration range >5 μM [1]: 4
3 | CC(C)(C)NC(=O)[C@@H]1CN(Cc2cccnc2)CCN1C[C@@H](O)C[C@@H](Cc1ccccc1)C(=O)N[C@H]1c2ccccc2C[C@H]1O [Indinavir, indinavir] |  |  |  |  | ~36 nM |  |  |  | ~2000 nM | effect of AAG and HS on potency against wild-type HIV-1 (wild type HIV-1 (LAI); wild-type HIV-1, presence of AAG and HS): unaffected; EC50 (R13028): ~261 nM
4 | Cc1c(O)cccc1C(=O)N[C@@H](CSc1ccccc1)[C@H](O)CN1C[C@H]2CCCC[C@H]2C[C@H]1C(=O)NC(C)(C)C [Nelfinavir, nelfinavir] | 25 | 31 | 1 | 7 | ~32 nM |  | 11 | 9 |  | EC50 (R13028): ~254 nM; EC50 ratio (human plasma or serum protein vs 10% FCS), concentration range 5 μM-500 nM [1, 6]: 5; EC50 (R13036): ~1000 nM; EC50 (R13127): ~8000 nM
5 | CC(C)CN(C[C@@H](O)[C@H](Cc1ccccc1)NC(=O)[C@H](CC(N)=O)NC(=O)c1ccc2ccccc2n1)C(=O)NC(C)(C)C [SC-52151, telinavir] |  |  |  |  |  |  |  |  |  | antiretroviral activity in vitro (HIV [2]): potent; activity in vivo (clinical efficacy) (HIV [3]): insufficient
6 | CC(C)CN(C[C@@H](O)[C@H](Cc1ccccc1)NC(=O)O[C@H]1CCOC1)S(=O)(=O)c1ccc(N)cc1 [amprenavir] | 12 | 25 | 1 | 2 | ~42 nM |  | 38 | 14 | ~412 nM | EC50 ratio (human plasma or serum protein vs 10% FCS), concentration range 5 μM-500 nM [1, 6]: 5; EC50 (R13127): ~2000 nM
7 | CC(C)[C@H](NC(=O)N(C)Cc1ccccn1)C(=O)N[C@@H](Cc1ccccc1)[C@H](O)[C@H](O)[C@H](Cc1ccccc1)NC(=O)[C@@H](NC(=O)N(C)Cc1ccccn1)C(C)C [A77003] |  |  |  |  |  |  |  |  |  | antiviral efficacy as the concentration of α1-acid glycoprotein (AAG) was increased (HIV [4]): decreased
8 | CC(C)c1nc(CN(C)C(=O)N[C@H](C(=O)N[C@@H](Cc2ccccc2)C[C@H](O)[C@H](Cc2ccccc2)NC(=O)OCc2cncs2)C(C)C)cs1 [Ritonavir, ritonavir] |  |  |  |  | ~36 nM |  |  |  | ~2000 nM | EC50 (R13031): ~407 nM
9 | CC(C)(C)NC(=O)[C@@H]1C[C@@H]2CCCC[C@@H]2CN1C[C@@H](O)[C@H](Cc1ccccc1)NC(=O)[C@H](CC(N)=O)NC(=O)c1ccc2ccccc2n1 [Saquinavir, saquinavir] | 5 | 5 | 1 | 3 |  | 3 | 5 | 4 |  | EC50 (R13020): ~7000 nM; EC50 (T13127): ~710 nM; EC50 ratio (human plasma or serum protein vs 10% FCS), concentration range <5 nM [1]: 19; EC50 ratio (human plasma or serum protein vs 10% FCS), concentration range >5 μM [1]: 2; influence of AAG on the anti-HIV activity ([1]; different HIV-1 strains, AAG 1 mg/mL vs 10% FCS, FIG. 1): decreases with increasing inhibitor concentrations; EC50 (T13025): ~166 nM
